Reference: patent US20240400584A1, “COMPOUNDS AND METHODS FOR MODULATING SPLICING” (REMIX THERAPEUTICS INC., priority 2021, published 2024)

Tests used:
HTT [1] = test: Gene panel canonical junction qPCR assay, HTT CJ mRNA (Table 7); type: cell-based, human; conditions: Homo sapiens, read-out: HTT CJ mRNA decrease IC50
Method: (§1) Compounds described herein were used to modulate RNA transcript abundance in cells. The expression of a target mRNA was measured by detecting the formation of an exon-exon junction in the canonical transcript (CJ). A compound mediated exon-inclusion event was detected by observing an increase in formation OF A new junction with an alternative exon (AJ). Real-time qPCR assays were used to detect these splicing switches and interrogate the potency of various compounds towards different target Genes. A high-throughput real time quantitative PCR (RT-qPCR) assay was developed to measure these two isoforms of the mRNA (CJ and AJ) for exemplary genes, such as HTT, SMN2, and MYB, together with a control housekeeping gene, GAPDH or GUSB or PPIA, used for normalization. Briefly, the A673 or K562 cell line was treated with various compounds described herein (e.g., compounds of Formula (i)). After treatment, the levels of the HTT, MYB, or SMN2 mRNA targets were determined from each sample of cell lysate by cDNA synthesis followed by qPCR.
(§2) The data analysis was performed by first determining the ΔCt vs the housekeeper gene. This ΔCt was then normalized against the DMSO control (ΔΔCt) and converted to RQ (relative quantification) using the 2^(−ΔΔCt) equation. The RQ were then converted to a percentage response by arbitrarily setting an assay window of 3.5 and 4.0 ΔCt for HTT-CJ and MYB-CJ respectively and an assay window of 9 and 3 ΔCt for HTT-AJ and MYB-AJ in 96 well format (50,000 K562 cells/well and 15,000 A673 cells per well) and an assay window of 3 and 4 ΔCt for HTT-CJ and MYB-CJ respectively and an assay window of 5 and 3 ΔCt for HTT-AJ and MYB-AJ respectively in 384 well format (8,000 K562 cells/well example). […] The percentage response was then fitted to the 4 parametric logistic equation to evaluate the concentration dependence of compound treatment. The increase in AJ mRNA is reported as AC50 (compound concentration having 50% response in AJ increase) while the decrease in CJ mRNA levels is reported as IC50 (compound concentration having 50% response in CJ decrease).
(§3) Additional studies were carried out for a larger panel of genes using the protocol provided above. The junction between flanking upstream and downstream exons was used to design canonical junction qPCR assays. At least one of the forward primer, reverse primer or the CY5-labeled 5′ nuclease probe (with 3′ quencher such as ZEN/Iowa Black FQ) was designed to overlap with the exon junction to capture the CJ mRNA transcript. BLAST was used to confirm the specificity of the probeset and parameters such as melting temperature, GC content, amplicon size, and primer dimer formation are considered during their design. Data for the decrease in CJ mRNA levels for four exemplary genes (HTT, SMN2, MYB, and Target C) analyzed in this panel are reported as IC50 (compound concentration having 50% response in CJ decrease).

MYB [2] = test: RT-qPCR splicing assay, MYB AJ/CJ mRNA; type: cell-based; conditions: Homo sapiens, A673 or K562 cells, 24 hours; for IC50: decrease in canonical junction mRNA; for AC50: increase in alternative junction mRNA
Method: as §1
(§4) The A673 cell line was cultured in DMEM with 10% FBS. Cells were diluted with full growth media and plated in a 96-well plate (15,000 cells in 100 ul media per well). The plate was incubated at 37° C. with 5% CO2 for 24 hours to allow cells to adhere. An 11-point 3-fold serial dilution of the compounds was made in DMSO then diluted in media in an intermediate plate. Compounds were transferred from the intermediate plate to the cell plate with the top dose at a final concentration of 10 uM in the well. Final DMSO concentration was kept at or below 0.25%. The cell plate was returned to the incubator at 37° C. with 5% CO2 for an additional 24 hours.
(§5) The K562 cell line was cultured in IMDM with 10% FBS. For K562, cells were diluted with full growth media and plated in either a 96-well plate (50,000 cells in 50 uL media per well) or a 384-well plate (8,000-40,000 cells in 45 uL media per well). An 11-point 3-fold serial dilution of the compounds were made in DMSO then diluted in media in an intermediate plate. Compound was transferred from the intermediate plate to the cell plate with the top dose at a final concentration of 10 uM in the well. Final DMSO concentration was kept at or below 0.25%. Final volume was 100 uL for 96-well plate and 50 uL for 384-well plate. The cell plate was then placed in an incubator at 37° C. with 5% CO2 for 24 hours.
(§6) The cells were then gently washed with 50 uL-100 uL Cold Pbs before proceeding to addition of lysis buffer. 30 uL-50 μL of room temperature lysis buffer with DNAse I (and optionally RNAsin) was added to each well. Cells were shaken/mixed thoroughly at room temperature for 5-10 minutes for lysis to take place and then 3 uL-5 μL of room temperature stop solution was added and wells were shaken/mixed again. After 2-5 minutes, the cell lysate plate was transferred to ice for RT-qPCR reaction setup. The lysates could also be frozen at −80° C. for later use.
(§7) In some cases, a direct lysis buffer was used. an appropriate volume of 3× lysis buffer (10 mM tRis, 150 mM NaCl, 1.5%-2.5% Igepal and 0.1-1 U/uL RNAsin, pH 7.4) was directly added to either K562 or A673 cells in media and mixed by pipetting 3 times. The plates were then incubated at room temperature with shaking/rocking for 20-50 minutes to allow for lysis to take place. After this time, the cell lysate plate was transferred to ice to set up for the RT-qPCR reactions. The lysates could also be frozen at −80° C. for later use.
(§8) To set up 10 uL RT-QpcR reactions, cell lysates were transferred to 384-well qPCR plates containing the master mix according to the table below. The plates were sealed, gently vortexed, and spun down before the run. The volumes were adjusted accordingly in some instances where the reaction was carried in 20 µL. The table below summarizes the components of the RT-qPCR reactions:
(§9) The RT-qPCR reaction was performed using a QuantStudio (ThermoFisher) under the following fast cycling conditions. […]

Target C = test: Gene panel canonical junction qPCR assay, Target C CJ mRNA (Table 7); type: cell-based, human; conditions: Homo sapiens, read-out: Target C CJ mRNA decrease IC50
Method: as §1, §2, §3

MYB [3] = test: Gene panel canonical junction qPCR assay, MYB CJ mRNA (Table 7); type: cell-based; conditions: Homo sapiens, read-out: MYB CJ mRNA decrease IC50
Method: as §1, §2, §3

HTT [4] = test: RT-qPCR splicing assay, HTT AJ/CJ mRNA; type: cell-based, human; conditions: Homo sapiens, 24 h, A673 or K562 cells; for IC50: decrease in canonical junction mRNA; for AC50: increase in alternative junction mRNA
Method: as §1, §4, §5, §6, §7, §8, §9

SMN2 = test: Gene panel canonical junction qPCR assay, SMN2 CJ mRNA (Table 7); type: cell-based; conditions: Homo sapiens, read-out: SMN2 CJ mRNA decrease IC50
Method: as §1, §2, §3

| Compound | IC50 (HTT [1]) | IC50 (MYB [2]) | IC50 (Target C) | IC50 (MYB [3]) | IC50 (HTT [4]) | IC50 (SMN2) | AC50 (MYB [2]) | AC50 (HTT [4]) |
| --- | --- | --- | --- | --- | --- | --- | --- | --- |
| COc1cc(-c2cc(F)c3c(c2)COc2nc(N(C)[C@@H]4C[C@H]5CC[C@@H](C4)N5)ccc2-3)cnn1 [Compound 254, (1R,3S,5S)—N-[10-fluoro-8-(6-methoxypyridazin-4-yl)-6H-isochromeno[3,4-b]pyridin-3-yl]-N-methyl-8-azabicyclo[3.2.1]octan-3-amine; bis(trifluoroacetaldehyde)] | < 100 nM | 100 to 1000 nM | 100 to 1000 nM | 100 to 1000 nM | < 100 nM | < 100 nM | 100 to 1000 nM | < 100 nM |
| COc1cc(-c2ccc3c(c2)COc2nc(O[C@@H]4C[C@H]5CC[C@@H](C4)N5)ncc2-3)cnn1 [Compound 298] | 100 to 1000 nM | 1000 to 10000 nM | 1000 to 10000 nM | 1000 to 10000 nM | 100 to 1000 nM | < 100 nM | 100 to 1000 nM | 100 to 1000 nM |
| CCN(c1ccc2c(n1)OCc1cc(-n3cccn3)ccc1-2)C1CC(C)(C)NC(C)(C)C1 [Compound 189] | > 10000 nM | 1000 to 10000 nM | > 10000 nM | 1000 to 10000 nM | > 10000 nM | 1000 to 10000 nM | > 10000 nM | 1000 to 10000 nM |
| CN(c1ccc2c(n1)OCc1cc(-c3cn[nH]c3)ccc1-2)C1CC2CC(F)(F)C(C1)N2 (centres unmarked) [Compound 248, 6,6-difluoro-N-methyl-N-[8-(1H-pyrazol-4-yl)-6H-isochromeno[3,4-b]pyridin-3-yl]-8-azabicyclo[3.2.1]octan-3-amine] | 100 to 1000 nM | 1000 to 10000 nM | 1000 to 10000 nM | 1000 to 10000 nM | 100 to 1000 nM | 100 to 1000 nM | 1000 to 10000 nM | 100 to 1000 nM |
| COc1cc(-c2ccc3c(c2F)COc2nc(N(C)[C@@H]4C[C@H]5CC[C@@H](C4)N5)ccc2-3)cnn1 [Compound 245, N-((1R,3s,5S)-8-azabicyclo[3.2.1]octan-3-yl)-7-fluoro-8-(6-methoxypyridazin-4-yl)-N-methyl-6H-isoch-romeno[3,4-b]pyridin-3-amine] | < 100 nM | < 100 nM | < 100 nM | < 100 nM | < 100 nM | < 100 nM | < 100 nM | < 100 nM |
| CN(c1ccc2c(n1)OCc1cc(-c3cn[nH]c3)c(F)cc1-2)C1CC(C)(C)NC(C)(C)C1 [Compound 233, 9-fluoro-N-methyl-8-(1H-pyrazol-4-yl)-N-(2,2,6,6-tetramethylpiperidin-4-yl)-6H-isochromeno[3,4-b]pyridin-3-amine] | < 100 nM | 100 to 1000 nM | 100 to 1000 nM | 100 to 1000 nM | < 100 nM | < 100 nM | 1000 to 10000 nM | 100 to 1000 nM |

Continued, in another order:

| IC50 (HTT [1]) | IC50 (MYB [2]) | IC50 (Target C) | IC50 (MYB [3]) | IC50 (HTT [4]) | IC50 (SMN2) | Compound | AC50 (MYB [2]) | AC50 (HTT [4]) |
| --- | --- | --- | --- | --- | --- | --- | --- | --- |
| 100 to 1000 nM | 1000 to 10000 nM | 1000 to 10000 nM | 1000 to 10000 nM | 100 to 1000 nM | 100 to 1000 nM | COc1cc(-c2ccc3c(c2)COc2nc(N4CCC(NC5CC5)C4)ccc2-3)cnn1 (centres unmarked) [Compound 255, N-cyclopropyl-1-[8-(6-methoxypyridazin-4-yl)-6H-isochromeno[3,4-b]pyridin-3-yl]pyrrolidin-3-amine] | 1000 to 10000 nM | 1000 to 10000 nM |
| 100 to 1000 nM | 1000 to 10000 nM | > 10000 nM | 1000 to 10000 nM | 100 to 1000 nM | 100 to 1000 nM | COc1cc(-c2ccc3c(c2)COc2nc(N4CCC(N5CCC5)C4)ccc2-3)cnn1 (centres unmarked) [Compound 312] | 1000 to 10000 nM | 1000 to 10000 nM |
| 100 to 1000 nM | 100 to 1000 nM | 1000 to 10000 nM | 100 to 1000 nM | 100 to 1000 nM | < 100 nM | COc1cc(-c2ccc3c(c2)COc2cc(N4CCC(NC(C)(C)C)C4)ncc2-3)cnn1 (centres unmarked) [Compound 289, N-(tert-butyl)-1-(8-(6-methoxypyridazin-4-yl)-6H-isochromeno [4,3-c]pyridin-3-yl)pyrrolidin-3-amine] | 1000 to 10000 nM | 1000 to 10000 nM |
| > 10000 nM | > 10000 nM | > 10000 nM | > 10000 nM | > 10000 nM | 1000 to 10000 nM | CCc1cc(-c2ccc3c(c2)COc2nc(N4CCC(NC(C)(C)C)C4)ccc2-3)cnn1 (centres unmarked) [Compound 284, N-tert-butyl-1-[8-(6-ethylpyridazin-4-yl)-6H-isochromeno[3,4-b]pyridin-3-yl]pyrrolidin-3-amine] | > 10000 nM | > 10000 nM |
| < 100 nM | 100 to 1000 nM | 100 to 1000 nM | 100 to 1000 nM | < 100 nM | < 100 nM | COc1cc(-c2ccc3c(c2)COc2nc(N4CC[C@H](NC(C)(C)C)C4)ccc2-3)cnn1 [Compound 269, (3S)—N-tert-butyl-1-[8-(6-methoxypyridazin-4-yl)-6H-isochromeno[3,4-b]pyridin-3-yl]pyrrolidin-3-amine] | 1000 to 10000 nM | 100 to 1000 nM |
| > 10000 nM | > 10000 nM | > 10000 nM | > 10000 nM | > 10000 nM | 1000 to 10000 nM | c1cnn(-c2ccc3c(c2)COc2nc(N4CCNCC4)ccc2-3)c1 [Compound 173] | > 10000 nM | > 10000 nM |
| > 10000 nM | > 10000 nM | > 10000 nM | > 10000 nM | > 10000 nM | > 10000 nM | c1cnn(-c2ccc3c(c2)COc2nc(N4CCC5(CCNCC5)C4)ccc2-3)c1 [Compound 182] | > 10000 nM | > 10000 nM |
